Source: paper PMC11292626, “5-Fluoroindole Reduces the Bacterial Burden in a Murine Model of Mycobacterium tuberculosis Infection” (ACS Omega, 2024)
Marks after values point to notes of the source that are not given here.

Tests used:
[1] = test system: Mycobacterium tuberculosis H37Rv Strain; experiment: MIC by resazurin reduction microplate assay (REMA), H37Rv; assay type: cell-based; conditions: Mtb H37Rv; for MIC: REMA
Mtb H37Rv strain = experiment: In vivo model of TB infection in mice; conditions: 150 μmol/kg, gavage, single daily dose, 15 administrations
[2] = Mycobacterium tuberculosis, H37RV, most frequent value of three independent assays
[3] = most frequent value of three independent assays

Row | SMILES | MIC [1, 2] | also measured
1 | CO[C@H]1/C=C/O[C@@]2(C)Oc3c(C)c(O)c4c(O)c(c(/C=N/N5CCN(C)CC5)c(O)c4c3C2=O)NC(=O)/C(C)=C\C=C\[C@H](C)[C@H](O)[C@@H](C)[C@@H](O)[C@@H](C)[C@H](OC(C)=O)[C@@H]1C [RIF, rifampin, reference compound] | 0.09 µM | 
2 | Fc1ccc2cc[nH]c2c1 [Compound 9] | 74 µM | reduction of activity compared to 5-FI (MIC ratio) [1]: more than 15 fold
3 | N[C@@H](Cc1c[nH]c2ccc(F)cc12)C(=O)O [5-fluorotryptophan, reference compound] | > 90 µM | MIC ([1]; Mycobacterium tuberculosis, H37RV): > 20 µg/mL
4 | Fc1cccc2[nH]ccc12 [Compound 8] | 18.5 µM | reduction of activity compared to 5-FI (MIC ratio) [1]: approximately 4 fold
5 | NNC(=O)c1ccncc1 [INH, isoniazid, reference compound] | 2.3 µM | lungs mean log10 CFU/mL ± SD (Mtb H37Rv strain): 2.43 ± 0.40***^, ### log10 CFU/mL; spleen weight mean g ± SD (Mtb H37Rv strain): 0.23 ± 0.04 g
6 | Brc1ccc2[nH]ccc2c1 [Compound 3, 5-bromoindole] | > 204 µM | MIC [1, 3]: >204.0 µM
7 | O=[N+]([O-])c1ccc2[nH]ccc2c1 [Compound 5] | > 247 µM | 
8 | Oc1ccc2[nH]ccc2c1 [Compound 6] | > 300 µM | 
9 | COc1ccc2[nH]ccc2c1 [Compound 7] | > 272 µM | 
10 | Fc1cccc2cc[nH]c12 [Compound 10] | 148 µM | reduction of activity compared to 5-FI (MIC ratio) [1]: > 31 fold
11 | Clc1ccc2[nH]ccc2c1 [Compound 2, 5-chloroindole] | > 264 µM | MIC [1, 3]: >263.9 µM
12 | N#Cc1ccc2[nH]ccc2c1 [Compound 4] | > 281 µM | 
